Test results: patent publication US8609419B2, “Method for inserting a nucleic acid of interest into a prokaryotic or eukaryotic cell by homologous recombination” (Centre National de la Recherche Scientifique, priority 2002, dated 2013)

Tested on: Escherichia coli cell genome
Test: Targeted insertion of lacZ::kan by homologous recombination from N-AcO-AAF-treated pCUL-lacZ::kan plasmid (white/total colonies)
Assay type: cell-based
Conditions: for Recombination frequency: white colonies/total colonies / Total number of colonies/number of recombined colonies: E. coli
Experimental: Reaction mixture • Plasmid DNA: Final concentration of 0.5 μg/μl in 2×10^−3 M citrate buffer, pH 7 • N-AcO-AAF: Final concentration of 400 μg/ml in ethanol.
60 μg DNA are added in 114 μl of 2×10^−3 M citrate buffer, pH7, added with 3 μl of ethanol at 100%.
The solution is preheated at 37° C.; then 3 μl of N-AcO-AAF (400 μg/ml) are added, marked with tritium (^3H).
Reaction time: 4, 8, 20 minutes.
40 μl are taken at the various selected times. The reaction is stopped by a DNA precipitation step with 3 volumes of ethanol/sodium acetate 0.16M followed by three other precipitation steps under the same conditions.
The percentage of modified bases is determined measuring the number of plasmid mols through UV spectrophotometry and the number of bound AAF mols, through βradioactivity counting.
The result is expressed in percentage of modified bases. The reaction time is adapted as a function of the size of the plasmid and the desired percentage of modified bases.
E. coli cells are transformed following the conventional electroporation method by using the conditions recommended by the device manufacturers to this end (Gene Pulser from Biorad for example).
In the example, transformant clones are selected on a LB-agar medium containing kanamycin (20 μg/ml) and the lack of β-galactosidase activity (being expressed by white colonies instead of blue ones), i.e. a phenotype typical of a non reciprocal recombination event is visualized by means of the presence of X-gal (5-bromo-4-chloro-3-indolyl-β-D-galactopyranoside) and IPTG (isopropyl-β-D-thiogalactopyranoside) in the dishes.

CC(=O)ON(C(C)=O)c1ccc2c(c1)Cc1ccccc1-2 [N-AcO-AAF, N-acetoxy-2-acetylaminofluorene]
Recombination frequency: white colonies/total colonies (10 AAF injuries per plasmid): 0.056 | Total number of colonies/number of recombined colonies (10 AAF injuries per plasmid): 17819/10 | Recombination frequency: white colonies/total colonies (20 AAF injuries per plasmid): 0.17 | Total number of colonies/number of recombined colonies (20 AAF injuries per plasmid): 9692/17 | Recombination frequency: white colonies/total colonies (33 AAF injuries per plasmid): 0.32 | Total number of colonies/number of recombined colonies (33 AAF injuries per plasmid): 2301975 | Recombination frequency: white colonies/total colonies (43 AAF injuries per plasmid): 1.41 | Total number of colonies/number of recombined colonies (43 AAF injuries per plasmid): 16554/237 | targeted recombinant molecules (67 AAF injuries on the plasmid, wild strain for recombination systems): more than 6% | Recombination frequency: white colonies/total colonies (67 AAF injuries per plasmid): 6.07 | Total number of colonies/number of recombined colonies (67 AAF injuries per plasmid): 1934/125 | increase in the recombination frequency (67 AAF injuries versus spontaneous events): more than 1,700 fold | frequency of homologous recombination events (67 molecules of N-AcO-AAF per molecule of the DNA vector): more than 600×10^−4 | frequency of non reciprocal homologous recombination events from the DNA vector to the chromosome (N-AcO-AAF bound onto the polynucleotide): higher than 0.05 homologous recombination events per transfected cell | frequency of homologous recombination events (ten molecules of N-AcO-AAF per molecule of the DNA vector): 5.61×10^−4
